# Species on record: Oryctolagus cuniculus
# Assay: The compound was evaluated for fall in intraocular pressure (IOP) of Glaucomatous rabbits after treatment with one drop (50 microL) of a 2% solution at 60 min (pH 6.4)
# Format: functional, Eye
# Conditions: not given
row,Compound,Change in IOP
1,NCC(=O)NCC(=O)Nc1nnc(S(N)(=O)=O)s1,12 mmHg

# Test system: not given
# Assay: not given
# Conditions: not given
row,Compound,kin
1,CC(=O)/N=c1/sc(S(N)(=O)=O)nn1C [METHAZOLAMIDE],13 h⁻¹
2,CNCC(=O)Nc1cc(Cl)c(S(N)(=O)=O)cc1S(N)(=O)=O,7.9 h⁻¹
3,CCNC1CC(C)S(=O)(=O)c2sc(S(=O)(=O)NC(=O)CNC)cc21 (stereo not drawn),7.8 h⁻¹
4,NCC(=O)NCC(=O)Nc1c(S(N)(=O)=O)cc(S(N)(=O)=O)c(Cl)c1Cl,11.5 h⁻¹
5,NCC(=O)NCC(=O)NS(=O)(=O)c1nc2ccc(OCCO)cc2s1,6.4 h⁻¹

# Species on record: Oryctolagus cuniculus
# Assay: The compound was evaluated for fall in intraocular pressure (IOP) of Normotensive rabbits after treatment with one drop (50 microL) of a 2% solution at 30 min (pH 5.6)
# Format: functional, Eye
# Conditions: not given
row,Compound,Change in IOP
1,CCNC1CC(C)S(=O)(=O)c2sc(S(=O)(=O)NC(=O)CNC)cc21 (stereo not drawn),3.1 mmHg

# Species on record: Oryctolagus cuniculus
# Assay: The compound was evaluated for fall in intraocular pressure (IOP) of Normotensive rabbits after treatment with one drop (50 microL) of a 2% solution at 0 min (pH 6.4)
# Format: functional, Eye
# Conditions: not given
row,Compound,Change in IOP
1,NCC(=O)NCC(=O)Nc1c(S(N)(=O)=O)cc(S(N)(=O)=O)c(Cl)c1Cl,0 mmHg
2,NCC(=O)NCC(=O)NS(=O)(=O)c1nc2ccc(OCCO)cc2s1,0 mmHg

# Species on record: Oryctolagus cuniculus
# Assay: The compound was evaluated for fall in intraocular pressure (IOP) of Glaucomatous rabbits after treatment with one drop (50 microL) of a 2% solution at 0 min ((pH 6.4)
# Format: functional, Eye
# Conditions: not given
row,Compound,Change in IOP
1,NCC(=O)NCC(=O)Nc1nnc(S(N)(=O)=O)s1,0 mmHg

# Test system: not listed separately
# Assay: physchem
# Conditions: buffer, pH 7.4
row,Compound,solubility
1,CNCC(=O)Nc1cc(Cl)c(S(N)(=O)=O)cc1S(N)(=O)=O,54 mM
2,CCNC1CC(C)S(=O)(=O)c2sc(S(=O)(=O)NC(=O)CNC)cc21 (stereo not drawn),62 mM
3,NCC(=O)NCC(=O)Nc1c(S(N)(=O)=O)cc(S(N)(=O)=O)c(Cl)c1Cl,59 mM
4,NCC(=O)NCC(=O)NS(=O)(=O)c1nc2ccc(OCCO)cc2s1,50 mM

# Species on record: Oryctolagus cuniculus
# Assay: The compound was evaluated for fall in intraocular pressure (IOP) of Normotensive rabbits after treatment with one drop (50 microL) of a 2% solution at 0 min (pH 5.6)
# Format: functional, Eye
# Conditions: not given
row,Compound,Change in IOP
1,CCNC1CC(C)S(=O)(=O)c2sc(S(=O)(=O)NC(=O)CNC)cc21 (stereo not drawn),0 mmHg

# Species on record: Oryctolagus cuniculus
# Assay: The compound was evaluated for fall in intraocular pressure (IOP) of Normotensive rabbits after treatment with one drop (50 microL) of a 2% solution at 0 min (pH 5.5)
# Format: functional, Eye
# Conditions: not given
row,Compound,Change in IOP
1,CNCC(=O)Nc1cc(Cl)c(S(N)(=O)=O)cc1S(N)(=O)=O,0 mmHg

# Species on record: Oryctolagus cuniculus
# Assay: The compound was evaluated for fall in intraocular pressure (IOP) of Glaucomatous rabbits after treatment with one drop (50 microL) of a 2% solution at 30 min (pH 6.4)
# Format: functional, Eye
# Conditions: not given
row,Compound,Change in IOP
1,NCC(=O)NCC(=O)Nc1nnc(S(N)(=O)=O)s1,7.7 mmHg

# Species on record: Oryctolagus cuniculus
# Assay: The compound was evaluated for fall in intraocular pressure (IOP) of Normotensive rabbits after treatment with one drop (50 microL) of a 2% solution at 90 min (pH 5.5)
# Format: functional, Eye
# Conditions: not given
row,Compound,Change in IOP
1,CNCC(=O)Nc1cc(Cl)c(S(N)(=O)=O)cc1S(N)(=O)=O,4.5 mmHg

# Species on record: Oryctolagus cuniculus
# Assay: The compound was evaluated for fall in intraocular pressure (IOP) of Normotensive rabbits after treatment with one drop (50 microL) of a 2% solution at 30 min (pH 6.4)
# Format: functional, Eye
# Conditions: not given
row,Compound,Change in IOP
1,NCC(=O)NCC(=O)Nc1c(S(N)(=O)=O)cc(S(N)(=O)=O)c(Cl)c1Cl,3.2 mmHg
2,NCC(=O)NCC(=O)NS(=O)(=O)c1nc2ccc(OCCO)cc2s1,3.3 mmHg

# Species on record: Oryctolagus cuniculus
# Assay: The compound was evaluated for fall in intraocular pressure (IOP) of Normotensive rabbits after treatment with one drop (50 microL) of a 2% solution at 30 min (pH 5.5)
# Format: functional, Eye
# Conditions: not given
row,Compound,Change in IOP
1,CNCC(=O)Nc1cc(Cl)c(S(N)(=O)=O)cc1S(N)(=O)=O,2.5 mmHg

# Species on record: Oryctolagus cuniculus
# Assay: The compound was evaluated for fall in intraocular pressure (IOP) of Normotensive rabbits after treatment with one drop (50 microL) of a 2% solution at 90 min (pH 6.4)
# Format: functional, Eye
# Conditions: not given
row,Compound,Change in IOP
1,NCC(=O)NCC(=O)Nc1c(S(N)(=O)=O)cc(S(N)(=O)=O)c(Cl)c1Cl,4.8 mmHg
2,NCC(=O)NCC(=O)NS(=O)(=O)c1nc2ccc(OCCO)cc2s1,5.4 mmHg

# Species on record: Oryctolagus cuniculus
# Assay: The compound was evaluated for fall in intraocular pressure (IOP) of Glaucomatous rabbits after treatment with one drop (50 microL) of a 2% solution at 90 min (pH 6.4)
# Format: functional, Eye
# Conditions: not given
row,Compound,Change in IOP
1,NCC(=O)NCC(=O)Nc1nnc(S(N)(=O)=O)s1,13.8 mmHg

# Species on record: Oryctolagus cuniculus
# Assay: The compound was evaluated for fall in intraocular pressure (IOP) of Narmotensive rabbits after treatment with one drop (50 microL) of a 2% solution at 0 min (pH 6.4)
# Format: functional, Eye
# Conditions: not given
row,Compound,Change in IOP
1,NCC(=O)NCC(=O)Nc1nnc(S(N)(=O)=O)s1,0 mmHg

# Test system: not given
# Assay: not given
# Conditions: not given
# Remark: another data set of the same source
row,Compound,kin
1,CC(=O)/N=c1/sc(S(N)(=O)=O)nn1C [METHAZOLAMIDE],1.9 h⁻¹
2,CNCC(=O)Nc1cc(Cl)c(S(N)(=O)=O)cc1S(N)(=O)=O,4.6 h⁻¹
3,CCNC1CC(C)S(=O)(=O)c2sc(S(=O)(=O)NC(=O)CNC)cc21 (stereo not drawn),3.9 h⁻¹
4,NCC(=O)NCC(=O)Nc1c(S(N)(=O)=O)cc(S(N)(=O)=O)c(Cl)c1Cl,4.8 h⁻¹
5,NCC(=O)NCC(=O)NS(=O)(=O)c1nc2ccc(OCCO)cc2s1,3.1 h⁻¹

# Target: T1, Carbonic anhydrase 4 (Bos taurus, UniProt Q95323)
# T1 sequence (Q95323 whole entry): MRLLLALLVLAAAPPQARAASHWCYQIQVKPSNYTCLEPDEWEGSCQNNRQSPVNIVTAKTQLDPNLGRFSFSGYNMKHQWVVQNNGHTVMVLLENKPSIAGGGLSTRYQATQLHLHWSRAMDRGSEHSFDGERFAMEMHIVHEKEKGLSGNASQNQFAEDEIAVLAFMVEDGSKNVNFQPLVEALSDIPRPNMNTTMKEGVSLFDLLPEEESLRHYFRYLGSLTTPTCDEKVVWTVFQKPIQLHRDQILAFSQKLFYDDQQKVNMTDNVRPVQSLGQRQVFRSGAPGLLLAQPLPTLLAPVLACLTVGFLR
# Assay: not given
# Conditions: not given
row,Compound,Ki
1,CNCC(=O)Nc1cc(Cl)c(S(N)(=O)=O)cc1S(N)(=O)=O,50 nM
2,CCNC1CC(C)S(=O)(=O)c2sc(S(=O)(=O)NC(=O)CNC)cc21 (stereo not drawn),30 nM
3,NCC(=O)NCC(=O)Nc1c(S(N)(=O)=O)cc(S(N)(=O)=O)c(Cl)c1Cl,56 nM
4,NCC(=O)NCC(=O)NS(=O)(=O)c1nc2ccc(OCCO)cc2s1,18 nM
5,NCC(=O)NCC(=O)Nc1nnc(S(N)(=O)=O)s1,45 nM

# Species on record: Oryctolagus cuniculus
# Assay: The compound was evaluated for fall in intraocular pressure (IOP) of Normotensive rabbits after treatment with one drop (50 microL) of a 2% solution at 60 min (pH 5.6)
# Format: functional, Eye
# Conditions: not given
row,Compound,Change in IOP
1,CCNC1CC(C)S(=O)(=O)c2sc(S(=O)(=O)NC(=O)CNC)cc21 (stereo not drawn),7 mmHg

# Species on record: Oryctolagus cuniculus
# Assay: The compound was evaluated for fall in intraocular pressure (IOP) of Normotensive rabbits after treatment with one drop (50 microL) of a 2% solution at 60 min (pH 6.4)
# Format: functional, Eye
# Conditions: not given
row,Compound,Change in IOP
1,NCC(=O)NCC(=O)Nc1c(S(N)(=O)=O)cc(S(N)(=O)=O)c(Cl)c1Cl,7 mmHg
2,NCC(=O)NCC(=O)NS(=O)(=O)c1nc2ccc(OCCO)cc2s1,7 mmHg

# Test system: not given
# Assay: not given
# Conditions: octanol/water
row,Compound,logD
1,CC(=O)/N=c1/sc(S(N)(=O)=O)nn1C [METHAZOLAMIDE],0.06
2,CNCC(=O)Nc1cc(Cl)c(S(N)(=O)=O)cc1S(N)(=O)=O,1.569
3,CCNC1CC(C)S(=O)(=O)c2sc(S(=O)(=O)NC(=O)CNC)cc21 (stereo not drawn),1.785
4,NCC(=O)NCC(=O)Nc1c(S(N)(=O)=O)cc(S(N)(=O)=O)c(Cl)c1Cl,2.133
5,NCC(=O)NCC(=O)NS(=O)(=O)c1nc2ccc(OCCO)cc2s1,1.85

# Species on record: Oryctolagus cuniculus
# Assay: The compound was evaluated for fall in intraocular pressure (IOP) of Normotensive rabbits after treatment with one drop (50 microL) of a 2% solution at 90 min (pH 5.6)
# Format: functional, Eye
# Conditions: not given
row,Compound,Change in IOP
1,CCNC1CC(C)S(=O)(=O)c2sc(S(=O)(=O)NC(=O)CNC)cc21 (stereo not drawn),5.5 mmHg

# Target: Carbonic anhydrase 1 (Homo sapiens, UniProt P00915)
# Assay: not given
# Conditions: not given
# Carbonic anhydrase 1, sequence (P00915 whole entry): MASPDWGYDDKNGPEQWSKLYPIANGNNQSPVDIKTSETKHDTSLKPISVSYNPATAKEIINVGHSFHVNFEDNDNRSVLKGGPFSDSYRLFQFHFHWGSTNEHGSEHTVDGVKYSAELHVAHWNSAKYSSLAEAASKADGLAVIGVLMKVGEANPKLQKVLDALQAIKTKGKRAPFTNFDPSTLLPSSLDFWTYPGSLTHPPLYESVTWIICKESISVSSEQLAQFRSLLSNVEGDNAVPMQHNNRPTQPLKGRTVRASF
row,Compound,Ki
1,CNCC(=O)Nc1cc(Cl)c(S(N)(=O)=O)cc1S(N)(=O)=O,350 nM
2,CCNC1CC(C)S(=O)(=O)c2sc(S(=O)(=O)NC(=O)CNC)cc21 (stereo not drawn),78 nM
3,NCC(=O)NCC(=O)Nc1c(S(N)(=O)=O)cc(S(N)(=O)=O)c(Cl)c1Cl,500 nM
4,NCC(=O)NCC(=O)NS(=O)(=O)c1nc2ccc(OCCO)cc2s1,9 nM
5,NCC(=O)NCC(=O)Nc1nnc(S(N)(=O)=O)s1,320 nM

# Species on record: Oryctolagus cuniculus
# Assay: The compound was evaluated for fall in intraocular pressure (IOP) of Normotensive rabbits after treatment with one drop (50 microL) of a 2% solution at 60 min (pH 5.5)
# Format: functional, Eye
# Conditions: not given
row,Compound,Change in IOP
1,CNCC(=O)Nc1cc(Cl)c(S(N)(=O)=O)cc1S(N)(=O)=O,5.2 mmHg

# Species on record: Oryctolagus cuniculus
# Assay: The compound was evaluated for fall in intraocular pressure (IOP) of Narmotensive rabbits after treatment with one drop (50 microL) of a 2% solution at 60 min (pH 6.4)
# Format: functional, Eye
# Conditions: not given
row,Compound,Change in IOP
1,NCC(=O)NCC(=O)Nc1nnc(S(N)(=O)=O)s1,9 mmHg

# Species on record: Oryctolagus cuniculus
# Assay: The compound was evaluated for fall in intraocular pressure (IOP) of Narmotensive rabbits after treatment with one drop (50 microL) of a 2% solution at 90 min (pH 6.4)
# Format: functional, Eye
# Conditions: not given
row,Compound,Change in IOP
1,NCC(=O)NCC(=O)Nc1nnc(S(N)(=O)=O)s1,8.9 mmHg

# Species on record: Oryctolagus cuniculus
# Assay: The compound was evaluated for fall in intraocular pressure (IOP) of Narmotensive rabbits after treatment with one drop (50 microL) of a 2% solution at 30 min (pH 6.4)
# Format: functional, Eye
# Conditions: not given
row,Compound,Change in IOP
1,NCC(=O)NCC(=O)Nc1nnc(S(N)(=O)=O)s1,5.6 mmHg
